Test results published in PubChem BioAssay AID248 (DTP/NCI, 2004).
“And” between values parts separate entries of the source, which are not always exact repeats. Equal values may be shown once. Toxic doses and inconclusive results are not listed. No stated cut-off is given here; in the data, active means T/C of 150% or more; inactive means T/C below 125%.

Test system: L1210 leukemia ip in BDF1 mice, survival T/C
Experiment: NCI In Vivo Anticancer Drug Screen. Data for tumor model L1210 Leukemia (intraperitoneal) in B6D2F1 (BDF1) mice
Settings: endpoint: mean survival time, higher = longer survival
Outline: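 Mice bearing the transplanted tumor received compound or vehicle. Survival of the treated group was divided by that of the vehicle-treated control group to give the ratio.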

[1] = dose: 100.0 mg/kg/injection, schedule: Q04DX002 (ip), vehicle: saline
[2] = dose: 200.0 mg/kg/injection, schedule: Q04DX002 (ip), vehicle: saline
[3] = dose: 400.0 mg/kg/injection, schedule: Q04DX002 (ip), vehicle: saline
[4] = dose: 100.0 mg/kg/injection, schedule: Q01DX009 (ip), vehicle: saline with Tween-80
[5] = dose: 200.0 mg/kg/injection, schedule: Q01DX009 (ip), vehicle: saline with Tween-80
[6] = dose: 100.0 mg/kg/injection, schedule: Q04DX003 (ip), vehicle: Klucel (hydroxypropylcellulose) (HPC)
[7] = dose: 200.0 mg/kg/injection, schedule: Q04DX003 (ip), vehicle: Klucel (hydroxypropylcellulose) (HPC)
[8] = dose: 400.0 mg/kg/injection, schedule: Q04DX003 (ip), vehicle: Klucel (hydroxypropylcellulose) (HPC)
[9] = dose: 100.0 mg/kg/injection, schedule: Q04DX003 (ip), vehicle: saline with Tween-80
[10] = dose: 200.0 mg/kg/injection, schedule: Q04DX003 (ip), vehicle: saline with Tween-80
[11] = dose: 400.0 mg/kg/injection, schedule: Q04DX003 (ip), vehicle: saline with Tween-80
[12] = dose: 100.0 mg/kg/injection, schedule: Q01DX001 (ip), vehicle: other
[13] = dose: 200.0 mg/kg/injection, schedule: Q01DX001 (ip), vehicle: other
[14] = dose: 400.0 mg/kg/injection, schedule: Q01DX001 (ip), vehicle: other

Measured: T/C

CC1(C)CCS1(=O)=O
inactive: [1] 100 % of control | [2] 100 % of control | [3] 100 % of control

Cc1cn(CCC(N)C(=O)O)c(=O)[nH]c1=O (stereo not given)
inactive: dose: 100.0 mg/kg/injection, schedule: Q01DX009 (ip), vehicle: saline 103 % of control | [1] 106 % of control | dose: 200.0 mg/kg/injection, schedule: Q01DX009 (ip), vehicle: saline 117 % of control | [2] 89 % of control | dose: 400.0 mg/kg/injection, schedule: Q01DX009 (ip), vehicle: saline 95 % of control | [3] 113 % of control

O=C(N/N=C/c1ccco1)c1ccccc1O
inactive: dose: 50.0 mg/kg/injection, schedule: Q01DX009 (ip), vehicle: saline with Tween-80 108 % of control | [4] 102 % of control | [5] 97 % of control

CCOc1ccc(NC(=O)OC(C)C)cc1
inactive: [6] 89 % of control | [7] 94 % of control | [8] 103 % of control

CC(C)(C)N=NC1(S(=O)(=O)c2ccccc2)CCCCC1
inactive: [6] 98 % of control | [7] 93 % of control | [8] 91 % of control

O=C(O)c1cc(Br)cc(Br)c1Cl
inactive: dose: 100.0 mg/kg/injection, schedule: Q04DX002 (ip), vehicle: Klucel (hydroxypropylcellulose) (HPC) 108 % of control | dose: 200.0 mg/kg/injection, schedule: Q04DX002 (ip), vehicle: Klucel (hydroxypropylcellulose) (HPC) 105 % of control | dose: 400.0 mg/kg/injection, schedule: Q04DX002 (ip), vehicle: Klucel (hydroxypropylcellulose) (HPC) 97 % of control

CC(=O)Nc1ccc2scnc2c1
inactive: [9] 112 % of control | [10] 112 % of control | [11] 105 % of control

O=c1[nH]nc(-c2ccc(Br)cc2)s1
inactive: [6] 101 % of control | [7] 95 % of control | [8] 98 % of control

C=Cc1cc(C)cc(OC)c1O
inactive: dose: 50.0 mg/kg/injection, schedule: Q01DX009 (ip), vehicle: Klucel (hydroxypropylcellulose) (HPC) 87 % of control | dose: 100.0 mg/kg/injection, schedule: Q01DX009 (ip), vehicle: Klucel (hydroxypropylcellulose) (HPC) 89 % of control | dose: 200.0 mg/kg/injection, schedule: Q01DX009 (ip), vehicle: Klucel (hydroxypropylcellulose) (HPC) 87 % of control

COc1cc2cc3c4cc(OC)c(OC)cc4cc[n+]3c(/C=C/c3cc([N+](=O)[O-])ccc3O)c2cc1OC
inactive: [12] 97 % of control and 100 % of control | dose: 100.0 mg/kg/injection, schedule: Q04DX002 (ip), vehicle: other 112 % of control and 92 % of control | dose: 100.0 mg/kg/injection, schedule: Q04DX003 (ip), vehicle: other 106 % of control | [13] 97 % of control and 103 % of control | dose: 200.0 mg/kg/injection, schedule: Q04DX002 (ip), vehicle: other 95 % of control and 88 % of control | dose: 200.0 mg/kg/injection, schedule: Q04DX003 (ip), vehicle: other 106 % of control | [14] 96 % of control and 107 % of control | dose: 400.0 mg/kg/injection, schedule: Q04DX002 (ip), vehicle: other 94 % of control and 98 % of control | dose: 400.0 mg/kg/injection, schedule: Q04DX003 (ip), vehicle: other 101 % of control

COc1cc(C=Nc2ccc3c(c2)OCO3)ccc1OC(=O)c1ccccc1
inactive: dose: 100.0 mg/kg/injection, schedule: Q04DX002 (ip), vehicle: saline with Tween-80 96 % of control | dose: 200.0 mg/kg/injection, schedule: Q04DX002 (ip), vehicle: saline with Tween-80 100 % of control | dose: 400.0 mg/kg/injection, schedule: Q04DX002 (ip), vehicle: saline with Tween-80 93 % of control

CC(=O)Oc1cccc(C)c1
inactive: [4] 104 % of control | [5] 106 % of control

COc1ccc(N=Cc2ccccc2O)cc1.[Co]
inactive: [12] 96 % of control | [13] 102 % of control | [14] 105 % of control

CN1CN(c2ccccc2)C2(CCN(CCCCCCC#N)CC2)C1=O
inactive: dose: 25.0 mg/kg/injection, schedule: Q04DX003 (ip), vehicle: Klucel (hydroxypropylcellulose) (HPC) 102 % of control | dose: 50.0 mg/kg/injection, schedule: Q04DX003 (ip), vehicle: Klucel (hydroxypropylcellulose) (HPC) 94 % of control | [7] 90 % of control | [8] 97 % of control

O=C(CCN1CC1)NCCc1ccccc1
inactive: dose: 20.0 mg/kg/injection, schedule: Q04DX003 (ip), vehicle: Klucel (hydroxypropylcellulose) (HPC) 92 % of control | dose: 40.0 mg/kg/injection, schedule: Q04DX003 (ip), vehicle: Klucel (hydroxypropylcellulose) (HPC) 95 % of control | [6] 86 % of control

COc1ccc2c(c1OC)C13CCN(C)C(C2)C12C=CC(=O)C3c1c(OC)ccc(OC)c12 (stereo not given)
inactive: dose: 100.0 mg/kg/injection, schedule: Q01DX001 (ip), vehicle: saline 95 % of control | dose: 200.0 mg/kg/injection, schedule: Q01DX001 (ip), vehicle: saline 95 % of control | dose: 400.0 mg/kg/injection, schedule: Q01DX001 (ip), vehicle: saline 91 % of control

COc1ccc(C(OC(=O)c2ccc([N+](=O)[O-])cc2)c2ccccc2)cc1 (stereo not given)
inactive: dose: 100.0 mg/kg/injection, schedule: Q01DX001 (ip), vehicle: carboxymethylcellulose (CMC) 88 % of control | dose: 200.0 mg/kg/injection, schedule: Q01DX001 (ip), vehicle: carboxymethylcellulose (CMC) 91 % of control | dose: 400.0 mg/kg/injection, schedule: Q01DX001 (ip), vehicle: carboxymethylcellulose (CMC) 93 % of control

O=C(Nc1ccccc1)Nc1ccc(C(=O)CCl)cc1
inactive: dose: 100.0 mg/kg/injection, schedule: Q01DX005 (ip), vehicle: saline with Tween-80 96 % of control | [9] 102 % of control | dose: 200.0 mg/kg/injection, schedule: Q01DX005 (ip), vehicle: saline with Tween-80 110 % of control | [10] 112 % of control | dose: 400.0 mg/kg/injection, schedule: Q01DX005 (ip), vehicle: saline with Tween-80 92 % of control | [11] 100 % of control

Nc1ccc2ccccc2c1-c1c(N)ccc2ccccc12
inactive: dose: 75.0 mg/kg/injection, schedule: Q04DX002 (ip), vehicle: saline with Tween-80 109 % of control | [6] 97 % of control | [7] 103 % of control | dose: 300.0 mg/kg/injection, schedule: Q04DX002 (ip), vehicle: saline with Tween-80 94 % of control | [8] 88 % of control

COc1cccc(NC(=O)NCCCl)c1OC
inactive: [6] 107 % of control | [7] 96 % of control | [8] 102 % of control

CN=Cc1ccccc1O.CN=Cc1ccccc1O.[Cu+2]
inactive: dose: 4.68 mg/kg/injection, schedule: Q01DX009 (ip), vehicle: acetone 94 % of control | dose: 9.37 mg/kg/injection, schedule: Q01DX009 (ip), vehicle: acetone 92 % of control | dose: 18.75 mg/kg/injection, schedule: Q01DX009 (ip), vehicle: acetone 90 % of control | dose: 18.75 mg/kg/injection, schedule: Q04DX003 (ip), vehicle: acetone 95 % of control | dose: 37.5 mg/kg/injection, schedule: Q04DX003 (ip), vehicle: acetone 92 % of control | dose: 75.0 mg/kg/injection, schedule: Q01DX001 (ip), vehicle: acetone 92 % of control

CCC(C)(C)c1ccc(Oc2ccccc2)c(N)c1
inactive: dose: 100.0 mg/kg/injection, schedule: Q01DX009 (ip), vehicle: other 88 % of control | [9] 104 % of control | dose: 200.0 mg/kg/injection, schedule: Q01DX009 (ip), vehicle: other 100 % of control | [10] 100 % of control | [11] 98 % of control

O=C1c2cc(Cl)ccc2-c2ccc([N+](=O)[O-])cc21
inactive: [6] 100 % of control | [7] 97 % of control | [8] 106 % of control

Cc1cc(S(=O)(=O)F)ccc1NC(=O)CCc1ccc(N2C(N)=NC(N)=NC2(C)C)cc1
inactive: dose: 100.0 mg/kg/injection, schedule: Q01DX001 (ip), vehicle: Klucel (hydroxypropylcellulose) (HPC) 98 % of control | dose: 200.0 mg/kg/injection, schedule: Q01DX001 (ip), vehicle: Klucel (hydroxypropylcellulose) (HPC) 102 % of control
